Patent publication US20130261045A1, “GREEN TEA POLYPHENOL ALPHA SECRETASE ENHANCERS AND METHODS OF USE” (UNIVERSITY OF SOUTH FLORIDA, priority 2005, published 2013)

Assays:
ADAM10 [1] = assay: Western blot of ADAM10 maturation in primary murine microglial cultures; format: cell-based; settings: various doses, 8 h
Method: (§1) Cultured cells were lysed in ice-cold lysis buffer described above, and an aliquot corresponding to 50 μg of total protein was electrophoretically separated using 16.5% Tris-tricine gels. Electrophoresed proteins were then transferred to PVDF membranes (Bio-Rad, Richmond, Calif.), washed in ddH2O, and blocked for 1 h at ambient temperature in Tris-buffered saline (TBS; Bio-Rad) containing 5% (w/v) non-fat dry milk. After blocking, membranes were hybridized for 1 h at ambient temperature with various primary antibodies. Membranes were then washed 3 times for 5 min each in ddH2O and incubated for 1 h at ambient temperature with the appropriate HRP-conjugated secondary antibody (1:1,000, Pierce Biotechnology, Inc. Rockford, Ill.). All antibodies were diluted in TBS containing 5% (w/v) of non-fat dry milk. Blots were developed using the luminol reagent (Pierce Biotechnology). Densitometric analysis was done using the Fluor-S MultiImager™ with Quantity One™ software (Bio-Rad). […] Antibodies used for Western blot included: antibody 369 (which recognizes the carboxyl-terminus of APP; 1:1,500), clone 22C11 (against the amino-terminus of APP; 1:1,500), clone 6E10 (against amino acids 1-17 of Aβ; 1:1,500), anti-ADAM9 (1:500), and antibodies against ADAM10 (1:500), ADAM17 (1:500) or actin (1:1,500; as an internal reference control). […]

ADAM10 [2] = assay: Western blot of ADAM10 maturation in N9 microglial cells; format: cell-based; settings: various doses, 8 h
Method: Cultured cells were lysed in ice-cold lysis buffer described above, and an aliquot corresponding to 50 μg of total protein was electrophoretically separated using 16.5% Tris-tricine gels. Electrophoresed proteins were then transferred to PVDF membranes (Bio-Rad, Richmond, Calif.), washed in ddH2O, and blocked for 1 h at ambient temperature in Tris-buffered saline (TBS; Bio-Rad) containing 5% (w/v) non-fat dry milk. After blocking, membranes were hybridized for 1 h at ambient temperature with various primary antibodies. Membranes were then washed 3 times for 5 min each in ddH2O and incubated for 1 h at ambient temperature with the appropriate HRP-conjugated secondary antibody (1:1,000, Pierce Biotechnology, Inc. Rockford, Ill.). All antibodies were diluted in TBS containing 5% (w/v) of non-fat dry milk. Blots were developed using the luminol reagent (Pierce Biotechnology). Densitometric analysis was done using the Fluor-S MultiImager™ with Quantity One™ software (Bio-Rad). […] Antibodies used for Western blot included: antibody 369 (which recognizes the carboxyl-terminus of APP; 1:1,500), clone 22C11 (against the amino-terminus of APP; 1:1,500), clone 6E10 (against amino acids 1-17 of Aβ; 1:1,500), anti-ADAM9 (1:500), and antibodies against ADAM10 (1:500), ADAM17 (1:500) or actin (1:1,500; as an internal reference control).

APP cleavage processing = assay: Western blot/immunoprecipitation of APP cleavage (CTFs, sAPP-α, holo APP) in APP-transfected N2a cells; format: cell-based, murine
Method: Cell cultured supernatants were collected and cell lysates were prepared from these cultured cells.
Cultured cells and mouse brain were lysed in ice-cold lysis buffer described above, and an aliquot corresponding to 50 μg of total protein was electrophoretically separated using 16.5% Tris-tricine gels. Electrophoresed proteins were then transferred to PVDF membranes (Bio-Rad), washed in dH2O, and blocked for 1 hour at ambient temperature in Tris-buffered saline (TBS; Bio-Rad) containing 5% (w/v) for non-fat dry milk. After blocking, membranes were hybridized for 1 hour at ambient temperature with various antibodies, including against the C- (369), N-terminus of APP (22C11), the N-terminus of Aβ (6E10), and ADAM10 and TACE (Calbiochem). Membranes were then washed 3× for 5 min each in dH2O and incubated for 1 hour at ambient temperature with the appropriate HRP-conjugated secondary antibody (1:1,000, Pierce Biotechnology, Inc. Rockford, Ill.). All antibodies were diluted in TBS containing 5% (w/v) of non-fat dry milk. Blots were developed using the luminal reagent (Pierce Biotechnology). Densitometric analysis was done using the Fluor-S Multimager™ with Quantity One™ software (Bio-Rad). Immunoprecipitation was performed for detection of sAPP-α, sAPP-β and Aβ by incubating 200 μg of total protein of each sample with 6E10 (1:100; Signet) or 22C11 (1:100; Roche, Basel, Switzerland) overnight with gentle rocking at 4° C., and 10 μL of 50% protein A-Sepharose beads were then added to the sample (1:10; Sigma) prior to gentle rocking for an additional 4 hours at 4° C. Following washes with 1× cell lysis buffer, samples were subjected to Western blot as described above. Antibodies used for Western blot included antibody 369 (1:1,000), anti-C-terminal APP antibody (1:500; Chemicon, Temecula, Calif.), BAM-10 (1:1,000; Sigma), 6E10 (1:1,000; Signet) or anti-Actin antibody (1:1,500; as an internal reference control; Roche). α-, β- and γ-secretase activities were quantified in cell lysates and mouse brain homogenates using available kits based on secretase-specific peptides conjugated to fluorogenic receptor molecules (R&D Systems, Minneapolis, Minn.).

[3] = tested on: TNF-a converting enzyme (TACE); assay: Western blot of TACE in APP-transfected N2a cells; format: cell-based, murine; settings: in 3 to 4 hours following EGCG treatment, then rapidly cleaved through 8 hours
Method: Cultured cells and mouse brain were lysed in ice-cold lysis buffer described above, and an aliquot corresponding to 50 μg of total protein was electrophoretically separated using 16.5% Tris-tricine gels. Electrophoresed proteins were then transferred to PVDF membranes (Bio-Rad), washed in dH2O, and blocked for 1 hour at ambient temperature in Tris-buffered saline (TBS; Bio-Rad) containing 5% (w/v) for non-fat dry milk. After blocking, membranes were hybridized for 1 hour at ambient temperature with various antibodies, including against the C- (369), N-terminus of APP (22C11), the N-terminus of Aβ (6E10), and ADAM10 and TACE (Calbiochem). […] Densitometric analysis was done using the Fluor-S Multimager™ with Quantity One™ software (Bio-Rad). […] Antibodies used for Western blot included antibody 369 (1:1,000), anti-C-terminal APP antibody (1:500; Chemicon, Temecula, Calif.), BAM-10 (1:1,000; Sigma), 6E10 (1:1,000; Signet) or anti-Actin antibody (1:1,500; as an internal reference control; Roche). α-, β- and γ-secretase activities were quantified in cell lysates and mouse brain homogenates using available kits based on secretase-specific peptides conjugated to fluorogenic receptor molecules (R&D Systems, Minneapolis, Minn.).

ADAM9 = assay: Western blot of ADAM9 in SweAPP N2a cells; format: cell-based, murine; settings: EGCG treatment; data not shown
Method: Cultured cells were lysed in ice-cold lysis buffer described above, and an aliquot corresponding to 50 μg of total protein was electrophoretically separated using 16.5% Tris-tricine gels. Electrophoresed proteins were then transferred to PVDF membranes (Bio-Rad, Richmond, Calif.), washed in ddH2O, and blocked for 1 h at ambient temperature in Tris-buffered saline (TBS; Bio-Rad) containing 5% (w/v) non-fat dry milk. After blocking, membranes were hybridized for 1 h at ambient temperature with various primary antibodies. Membranes were then washed 3 times for 5 min each in ddH2O and incubated for 1 h at ambient temperature with the appropriate HRP-conjugated secondary antibody (1:1,000, Pierce Biotechnology, Inc. Rockford, Ill.). All antibodies were diluted in TBS containing 5% (w/v) of non-fat dry milk. Blots were developed using the luminol reagent (Pierce Biotechnology). Densitometric analysis was done using the Fluor-S MultiImager™ with Quantity One™ software (Bio-Rad). For examining sAPP-α, conditioned medium was collected following treatment according to a modified protocol from Chen and Fernandez (Chen et al., 2004). sAPP-α was extracted using 3K Nanosep centrifugal filters (Pall Life Sciences, Ann Arbor, Mich.) and protein concentrate was prepared for the aforementioned electrophoresis. […]

ADAM10 [4] = assay: Western blot of ADAM10 maturation in primary murine neuronal cultures; format: cell-based; settings: various doses, 8 h
Method: as §1

APP α-secretase cleavage = assay: Western blot of APP CTFs and sAPP-α in SweAPP N2a cells (Examples 6-7, with or without siRNA knock-down); format: cell-based, murine; settings: various doses of EGCG, 8 h
Excerpt: FIGS. 8A-8H show EGCG-induced ADAM10 activation correlates with APP α-secretase cleavage in vitro. […] Data were represented as % change relative to control (medium from cultured SweAPP N2a cells or primary neuronal cells without any treatment).
FIGS. 10A-10C show ADAM10 is required for EGCG-induced APP α-secretase cleavage. […] In FIG. 10A, cell lysates were subjected to WB for APP CTFs and ADAM10 cleavage analyses. […] In FIG. 10B, cell culture media were subjected to WB for sAPP-α secretion. […] In FIG. 10C, cell culture media were subjected to Aβ ELISA. Data are represented as % change relative to control (medium from cultured SweAPP N2a cells without any treatment). […] Data are representative of three independent experiments.
Cultured cells were lysed in ice-cold lysis buffer described above, and an aliquot corresponding to 50 μg of total protein was electrophoretically separated using 16.5% Tris-tricine gels. […] Densitometric analysis was done using the Fluor-S MultiImager™ with Quantity One™ software (Bio-Rad). […]
SweAPP N2a cells were transfected with siRNA pre-designed to knock-down murine ADAM9, 10, or 17 mRNA (Dharmacon Inc. Lafayette, Colo.). […] Transfection efficiency was determined to be greater than 80% (data not shown) using no-RISC siGLOW (fluorescently labeled non-functional siRNA; Dharmacon). […] The cells were evaluated by Western blot analysis for expression of ADAM9, 10 or 17. […]

Structure (SMILES): O=C(O[C@@H]1Cc2c(O)cc(O)cc2O[C@@H]1c1cc(O)c(O)c(O)c1)c1cc(O)c(O)c(O)c1 [EGCG, (−)-epigallocatechin-3-gallate]
- mature ADAM10 (ADAM10 [1]): dose-dependent increases
- ADAM10 maturation (ADAM10 [2]): dose-dependently increased
- secreted form of APP-α (sAPP-α) in cell cultured medium (APP cleavage processing; 20 μM for 18 hours): markedly increased
- total APP and holo APP expression (APP cleavage processing; EGCG treated cells): not any changes
- α-CTF generation, time course (APP cleavage processing; in 3 to 4 hours and then through to 8 hours after EGCG treatment): drastically increased
- TACE expression [3]: significantly increased
- ADAM9 expression (ADAM9): no significant effects
- mature ADAM10 (ADAM10 [4]): dose-dependent increases
- sAPP-α (APP α-secretase cleavage): dose-dependent increases
- α-CTF (APP α-secretase cleavage): dose-dependent increases
